Experimental data taken from patent US20020182736A1, “Methods to measure lipid antioxidant activity” (TRUSTEES OF TUFTS COLLEGE, priority 2001, published 2002).
Where “and” joins values, the source holds several entries; their conditions need not be identical. Equal entries are not always repeated. Entries after “also recorded” stand apart in the source; their conditions may differ. Where two headings read alike, the source gives them in different places. Blank lines part the entries; values can stand above or below the compound they belong to.

Key:
[1] = tested on: aqueous peroxyl radicals generated by AAPH in human plasma; test: Consumption of endogenous plasma antioxidants induced by AAPH (HPLC); settings: for time to complete consumption in plasma: 37° C; for percentage remaining / Residual Amount (%) / Residual Amount (%) of Cryptoxanthin / Residual Amount (%) of Lutein / Residual Amount (%) of Lycopene / Residual Amount (%) of Zeaxanthin / Residual Amount (%) of β-Carotene: AAPH 20 mM for 120 min; for percentage remaining / Residual Amount (%): no EGCG (control)
Description: In a second similar experiment, other antioxidants were studied. […] Echinenone in ethanol was added as an internal standard.

[2] = cited from earlier work; for redox potential E: E(EGCG-O., H+/EGCG-OH), E(A−., H+/AH−)
[3] = ESR quenching of α-tocopheroxyl radical generated from α-tocopherol and DPPH; assay type: biochemical; settings: for IC50: read-out: IC50 quenching of α-TOC-O. ESR signal
Description: α-TOC+DPPH→α-TOC-O.+DPPHH [1]
For sample preparation, α-tocopherol (900 μM) and DPPH (600 μM) in ethanol solution were mixed for 20 sec and 50 μl of the reaction mixture transferred into a capillary ESR tube. (−)-Epigallocatechin-(3)-gallate (EGCG) was added to the mixture immediately after DPPH decolorization (30 sec after DPPH addition).

[4] = tested on: lipid peroxyl radicals generated by MeO-AMVN in human plasma; test: Consumption of endogenous plasma antioxidants induced by MeO-AMVN (HPLC); settings: for time to total disappearance in plasma: human plasma 1:5 with PBS, 37° C; for Residual Amount (%) of Cryptoxanthin / Residual Amount (%) of Lutein / Residual Amount (%) of Lycopene / Residual Amount (%) of Zeaxanthin / Residual Amount (%) of β-Carotene: MeO-AMVN 2 mM for 60 min
Description: After an overnight fast (10-12 h), blood from two healthy donors was collected in ethylenediaminetetraacetic acid (EDTA)-containing tubes. In order to reduce the variability of different donors, blood samples from these two subjects were collected weekly for the duration of the experiment. Immediately after collection, the samples were placed on ice and protected from light. Plasma was obtained by centrifugation at 800 g for 20 min at 4° C. and immediately used for the in vitro studies.
In the presence of 10-20 mM of AAPH, the flux of aqueous radicals calculated on the basis of the known rate of free radical generation from AAPH at 37° C.
In order to obtain homogeneous incorporation, the lipid soluble initiators were added slowly to the samples with a micro-syringe (10 μl) with stirring. The samples were then vortexed for 10 sec and incubated at 37±1° C. under aerobic conditions.
In a second similar experiment, other antioxidants were studied. […] A 100 μl aliquot of the reaction mixture was extracted for β-carotene and α-tocopherol analysis. Echinenone in ethanol was added as an internal standard. The mixture was extracted with CHCl3:CH3OH (2:1 v/v) containing 0.2% BHT and hexane containing 0.1% BHT, dried under nitrogen, redissolved in ethanol, and injected into an HPLC system with a C30 column (3 μm, 150×4.6 mm, YMC, Wilmington, N.C.).
For water-soluble antioxidant measurement, the mixtures were immediately deproteinized with perchloric acid (250 mM).
Results are expressed as percentages with respect to control samples prepared without the azo-compounds.

[5] = tested on: oxidation of lipid compartment of plasma; test: Lipid compartment oxidizability of plasma with BHT standard (MeO-AMVN, BODIPY 581/591); settings: for Green Fluorescence, 25 μM: equals Plasma minus Plasma + BHT
Description: In order to standardize the method to determine the lipophilic antioxidant capacity, butylated hydroxytoluene (BHT), a phenolic synthetic antioxidant, was chosen as an internal standard. Polyenes and certain foods were packaged with added BHT to protect against oxidation. Plasma was incubated with BODIPY 581/591 in the presence and absence of BHT (25 & 50 µM) at 37° C. for 30 min, and determined for oxidizability in the lipid compartment. There was no significant difference among incubation times of 30 min, 1 hr and 2 hr, on the incorporation of BHT in the lipid compartment of plasma (FIG. 14). […] The concentration of BHT may also be reduced to a level sufficient to produce a detectable signal.

[6] = tested on: lipid plasma compartment oxidation; test: Lipid plasma compartment oxidation, BODIPY 581/591 green fluorescence
Description: Plasma oxidation was measured fluorometrically using two different fluorescent probes: DCFH and BODIPY. DCFH-DA and BODIPY stock solutions were prepared in EtOH and dimethylsulfoxide, respectively, stored under nitrogen at −20° C. and used within two months. The final plasma dilution was 1:5 (v/v).
In the experiments using β-carotene, to avoid the filtering effect due to the carotenoid, the oxidation product of BODIPY was also detected at λex=520 and at λem-540 nm. The fluorescence measurements were carried out using a Perkin Elmer spectrofluorometer (model 650-10s) with 1 cm path length fluorescence cuvettes.
Briefly, β-carotene (dissolved in stabilized THF, 10 mg/ml) or α-tocopherol (4.3 mg/ml in EtOH) were added to plasma to reach a final concentration of 50 μM; the samples were then vortexed for 30 sec and incubated at 37±1° C. for 1 to 6 hr under nitrogen. […] Controls were prepared in the same way using solvent only.
The effect of adding the membrane soluble antioxidants, α-tocopherol (in EtOH) and β-carotene (in THF), pre-incubated with plasma, was studied. […] Values are mean±SD of five independent experiments. Statistical analysis: one-way ANOVA with Tukey's post test; *p<0.05, **p<0.01.
To monitor the aqueous phase oxidizability, AAPH was used as a hydrophilic radical generator and coupled to DCFH was used as the indicator.

[7] = tested on: aqueous plasma compartment oxidation; test: Aqueous plasma compartment oxidation, DCFH to DCF fluorescence; design: species or system human; settings: for protective effect on aqueous compartment oxidation: 180 min of incubation
Description: The final plasma dilution was 1:5 (v/v).
DCFH was prepared from DCFH-DA by basic hydrolysis. Briefly 500 μl of DCFH-DA stock solution (1 mM) was mixed with 2 ml of NaOH (0.01 N at 4° C.) for 20 minutes while protected from the light. The mixture was then neutralized with 2 ml of HCl (0.01 N), diluted with PBS to a final concentration of 10 μM and stored in ice for no longer than 8 hrs (working solution); an aliquot of 100 μl was added to 200 μl of plasma and then diluted to a final volume of 1 ml with PBS. […] The excitation wavelength (λex) was set at […] (slit 5 nm) and emission (λem) at 520 nm (slit 5 nm).
Values are mean±SD of five independent experiments. […] Samples were incubated at 37° C. in the dark and at fixed times the DCF content measured by fluorescence (λex=502 nm, λem=520 nm).

[8] = 20 mM AAPH, human plasma 1:5 with PBS
[9] = Subject 1, 2 hr incubation w/1 mM MeO-AMVN
[10] = Subject 1, 3 hr incubation w/1 mM MeO-AMVN
[11] = Subject 2, 2 hr incubation w/1 mM MeO-AMVN
[12] = Subject 2, 3 hr incubation w/1 mM MeO-AMVN
[13] = Subject 3, 2 hr incubation w/1 mM MeO-AMVN
[14] = Subject 3, 3 hr incubation w/1 mM MeO-AMVN

IC50 ([3]; unit inferred): 14.2 µM
Structure (SMILES): O=C1O[C@H]([C@@H](O)CO)C(O)=C1O [ascorbic acid]
time to complete consumption in plasma [1, 8]: ≤ 15 min
redox potential E [2]: 0.28 V
time to total disappearance in plasma ([4]; 2 mM MeO-AMVN): 30 min

Structure (SMILES): CC1=C(/C=C/C(C)=C/C=C/C(C)=C/C=C/C=C(C)/C=C/C=C(C)/C=C/C2=C(C)CCCC2(C)C)C(C)(C)CCC1 [β-Carotene, β-carotene]
percentage remaining / Residual Amount (%) [1]: 28.89±6.17%

Structure (SMILES): CC(C)=CCC/C(C)=C/C=C/C(C)=C/C=C/C(C)=C/C=C/C=C(C)/C=C/C=C(C)/C=C/C=C(\C)CCC=C(C)C [Lycopene, lycopene]
percentage remaining / Residual Amount (%) [1]: 8.49 ± 5.20%
percentage remaining / Residual Amount (%) ([1]; listed as lycopene): 8.49±5.20%

Structure (SMILES): Cc1cc(C(C)(C)C)c(O)c(C(C)(C)C)c1 [BHT, butylated hydroxytoluene]
protection of oxidation of lipid compartment ([5]; BHT added to plasma): 78%
Green Fluorescence, Plasma + BHT [5, 9]: 107 ± 1.4
Green Fluorescence, 25 μM [5, 9]: 382
Green Fluorescence, Plasma + BHT [5, 10]: 217 ± 4.0
Green Fluorescence, 25 μM [5, 10]: 806
Green Fluorescence, Plasma + BHT [5, 11]: 123 ± 7.3
Green Fluorescence, 25 μM [5, 11]: 347
Green Fluorescence, Plasma + BHT [5, 12]: 223 ± 8.9
Green Fluorescence, 25 μM [5, 12]: 650
Green Fluorescence, Plasma + BHT [5, 13]: 142 ± 8.0
Green Fluorescence, 25 μM [5, 13]: 245
Green Fluorescence, Plasma + BHT [5, 14]: 250 ± 13.3
Green Fluorescence, 25 μM [5, 14]: 551

Structure (SMILES): CC(C)CC(C)(C#N)N=NC(C)(C#N)CC(C)C (stereo not shown) [AMVN, 2,2′-azobis(2,4-dimethylvaleronitrile)]
change in BODIPY fluorescence in plasma ([6]; 2 mM initiator, 37° C): no observed changes; also recorded: No change

IC50 ([6]; read-out: IC50 in lipid compartment, MeO-AMVN 2 mM, after 180 min of incubation): 4.37 µM
IC50 ([3]; 60 sec after the beginning of the reaction): 12.1 µM
IC50 ([7]; AAPH 20 mM, after 180 min of incubation): 0.72 µM
Structure (SMILES): O=C(O[C@@H]1Cc2c(O)cc(O)cc2O[C@@H]1c1cc(O)c(O)c(O)c1)c1cc(O)c(O)c(O)c1 [EGCG, (−)-Epigallocatechin-(3)-gallate]
Residual Amount (%) of Cryptoxanthin ([1]; EGCG 0.5 μM): 28.46 ± 3.35%
Residual Amount (%) of Lutein ([1]; EGCG 0.5 μM): 26.05 ± 4.26%
Residual Amount (%) of Lycopene ([1]; EGCG 0.5 μM): 9.35 ± 5.18%
Residual Amount (%) of Zeaxanthin ([1]; EGCG 0.5 μM): 25.61 ± 6.53%
Residual Amount (%) of β-Carotene ([1]; EGCG 0.5 μM): 41.51 ± 6.64%
Residual Amount (%) of Cryptoxanthin ([1]; EGCG 1 μM): 36.21 ± 1.71 %
Residual Amount (%) of Lutein ([1]; EGCG 1 μM): 40.64 ± 5.30 %
Residual Amount (%) of Lycopene ([1]; EGCG 1 μM): 18.06 ± 2.44%
Residual Amount (%) of Zeaxanthin ([1]; EGCG 1 μM): 48.78 ± 4.81 %
Residual Amount (%) of β-Carotene ([1]; EGCG 1 μM): 54.38 ± 4.86 %
Residual Amount (%) of Cryptoxanthin ([1]; EGCG 5 μM): 48.88 ± 2.08 %
Residual Amount (%) of Lutein ([1]; EGCG 5 μM): 56.05 ± 4.42 %
Residual Amount (%) of Lycopene ([1]; EGCG 5 μM): 25.26 ± 1.02 %
Residual Amount (%) of Zeaxanthin ([1]; EGCG 5 μM): 58.89 ± 5.10 %
Residual Amount (%) of β-Carotene ([1]; EGCG 5 μM): 58.63 ± 3.30 %
Residual Amount (%) of Cryptoxanthin ([1]; EGCG 10 μM): 56.45 ± 5.00 %
Residual Amount (%) of Lutein ([1]; EGCG 10 μM): 63.13 ± 8.15 %
Residual Amount (%) of Lycopene ([1]; EGCG 10 μM): 32.30 ± 4.24 %
Residual Amount (%) of Zeaxanthin ([1]; EGCG 10 μM): 62.36 ± 11.92 %
Residual Amount (%) of β-Carotene ([1]; EGCG 10 μM): 64.35 ± 6.37 %
effect on consumption of ascorbic acid and uric acid ([1]; EGCG 0.5-10 μM, 20 mM AAPH): ineffective
redox potential E [2]: 0.48 V
ΔE to reduce tocopheroxyl radical ([2]; physiological pH): 0.06 V
protective effect on lipid compartment oxidation ([6]; EGCG 0.5 μM, MeO-AMVN 2 mM, 180 min of incubation): 13.01±0.56%
protection of lipid compartment oxidation ([6]; EGCG 10 μM, MeO-AMVN 2 mM, 180 min of incubation): 68±2.3%
lowest / starting effective concentration, lipid compartment ([6]; MeO-AMVN 2 mM, 180 min): 0.5 µM and 0.5 to 1 µM
% inhibition of ESR signal ([3]; EGCG 2 μM, 60 sec after the beginning of the reaction): 8±1.3%
quenching effect on ESR signal ([3]; EGCG 25 μM): almost complete disappearance
concentration at which activity starts, aqueous compartment ([7]; AAPH 20 mM, 180 min): 0.25 µM
protective effect on aqueous compartment oxidation ([7]; EGCG 10 μM, AAPH 20 mM): 93.02±2.02%
protective effect on aqueous compartment oxidation ([7]; EGCG 0.25 AM, AAPH 20 mM): 20.25±0.34%
antioxidant efficiency in the aqueous in respect to the lipid domain ([7]; from IC50 after 180 min): six times greater
Residual Amount (%) of Cryptoxanthin ([4]; EGCG 0.5 μM): 54.38 ± 2.74%
Residual Amount (%) of Lutein ([4]; EGCG 0.5 μM): 32.57 ± 4.14%
Residual Amount (%) of Lycopene ([4]; EGCG 0.5 μM): 20.15 ± 3.22%
Residual Amount (%) of Zeaxanthin ([4]; EGCG 0.5 μM): 47.69 ± 5.85%
Residual Amount (%) of β-Carotene ([4]; EGCG 0.5 μM): 51.95 ± 1.68%
Residual Amount (%) of Cryptoxanthin ([4]; EGCG 1 μM): 52.36 ± 0.79%
Residual Amount (%) of Lutein ([4]; EGCG 1 μM): 33.75 ± 3.94%
Residual Amount (%) of Lycopene ([4]; EGCG 1 μM): 19.76 ± 2.62%
Residual Amount (%) of Zeaxanthin ([4]; EGCG 1 μM): 49.64 ± 2.14%
Residual Amount (%) of β-Carotene ([4]; EGCG 1 μM): 50.15 ± 3.35%
Residual Amount (%) of Cryptoxanthin ([4]; EGCG 5 μM): 45.16 ± 3.09%
Residual Amount (%) of Lutein ([4]; EGCG 5 μM): 44.64 ± 5.50%
Residual Amount (%) of Lycopene ([4]; EGCG 5 μM): 23.56 ± 1.78%
Residual Amount (%) of Zeaxanthin ([4]; EGCG 5 μM): 44.31 ± 0.94%
Residual Amount (%) of β-Carotene ([4]; EGCG 5 μM): 57.73 ± 0.54%
% α-tocopherol remaining ([4]; EGCG 10 μM, MeO-AMVN): 96.71±1.46%
Residual Amount (%) of Cryptoxanthin ([4]; EGCG 10 μM): 41.84 ± 1.60%
Residual Amount (%) of Lutein ([4]; EGCG 10 μM): 40.36 ± 4.03%
Residual Amount (%) of Lycopene ([4]; EGCG 10 μM): 26.72 ± 0.94%
Residual Amount (%) of Zeaxanthin ([4]; EGCG 10 μM): 42.67 ± 2.04%
Residual Amount (%) of β-Carotene ([4]; EGCG 10 μM): 59.13 ± 3.72%
sparing of carotenoids depletion ([4]; EGCG 0.5-10 μM, MeO-AMVN): ineffective; also recorded: failed to prevent

Structure (SMILES): Cc1c(C)c2c(c(C)c1O)CC[C@@](C)(CCC[C@H](C)CCC[C@H](C)CCCC(C)C)O2 [α-tocopherol]
time to almost complete consumption in plasma ([1]; 10-20 mM AAPH, human plasma 1:5 with PBS): ≤ 30 min
percentage remaining / Residual Amount (%) [1]: 3.86±0.94%
time to almost total depletion ([4]; 2 mM MeO-AMVN): 60 min
content reduced by ([4]; 2 mM MeO-AMVN, at 30 min): 42%
% α-tocopherol remaining ([4]; control without EGCG, MeO-AMVN): 16.43±1.72%

Structure (SMILES): CC1=C(/C=C/C(C)=C/C=C/C(C)=C/C=C/C=C(C)/C=C/C=C(C)/C=C/C2=C(C)C[C@@H](O)CC2(C)C)C(C)(C)CCC1 [Cryptoxanthin, cryptoxanthin]
percentage remaining / Residual Amount (%) [1]: 18.94 ± 3.86%
percentage remaining / Residual Amount (%) ([1]; listed as cryptoxanthin): 18.94±3.86%

Structure (SMILES): CC1=C[C@H](O)CC(C)(C)[C@H]1/C=C/C(C)=C/C=C/C(C)=C/C=C/C=C(C)/C=C/C=C(C)/C=C/C1=C(C)C[C@@H](O)CC1(C)C [Lutein, lutein]
percentage remaining / Residual Amount (%) [1]: 12.82 ± 4.85%
percentage remaining / Residual Amount (%) ([1]; listed as lutein): 12.82±4.85%

Structure (SMILES): O=c1[nH]c(=O)c2[nH]c(=O)[nH]c2[nH]1 [uric acid]
time to complete consumption in plasma [1, 8]: ≤ 180 min
time to total disappearance in plasma ([4]; 2 mM MeO-AMVN): 300 min

Structure (SMILES): CC1=C(/C=C/C(C)=C/C=C/C(C)=C/C=C/C=C(C)/C=C/C=C(C)/C=C/C2=C(C)C[C@@H](O)CC2(C)C)C(C)(C)C[C@H](O)C1 [Zeaxanthin, zeaxanthin]
percentage remaining / Residual Amount (%) [1]: 17.50 ± 5.98%
percentage remaining / Residual Amount (%) ([1]; listed as zeaxanthin): 17.50±5.98%
